This test has as its system TNF-α. The experiment in a line: TNF-α secretion in LPS-stimulated RAW 264.7 cells (ELISA). Type of test: cell-based, mouse. To be noted: sample at IC20 value; vs dexamethasone 1 μg/mL; LPS 1 μg/mL. From the text: Mouse monocyte macrophage RAW 264.7 cells (American Type Culture Collection, […]-71) were stimulated with lipopolysaccharide (LPS) or phytohemagglutinin (PHA). The LPS treated RAW 264.7 cells served as a vehicle control, of which the NO production, and the secreted cytokines were defined as 100%, whereas a negative control was non-treated RAW 264.7 cells. Dexamethasone (an anti-inflammatory drug) was used as a positive control. PBMCs (1 × 10^5 cells/well in RPMI-1640 for IL-2) and Raw cells (1 × 10^5 cells/well in DMEM for TNF-α) were seeded for 24 h in a CO2 incubator set at 37 °C and 5% CO2/95% humidified air. Then cells were treated with […] fractional extracts (IC20 value) or pure compounds (IC20 value), or dexamethasone (1 μg/mL) were added. […] After 24 h, the media were removed and centrifuged at 13,500 × g for 10 min and 100 μL of the supernatant was analysed by the protocol of R&D Systems, Minneapolis, MN, USA using ELISA technique. The absorbance was measured at 450 nm and corrected with the reference wavelength of 570 nm (Beckman CoulterDTX880, Fullerton, CA, USA). Viability of PBMCs and RAW 264.7 cells was also determined using MTT assay as described previously. IL-2 and TNF-α secretion inhibitions were calculated as bellow:4 %Cytokineinhibition=A-B/A×100 A is the optical density of the mixture without the sample, while B is the optical density of the mixture with the sample. […]
In general terms: An ELISA detects its analyte on a solid surface through an enzyme-linked reagent.

This passage reports TNF-α inhibition results from publication PMC10257291, “Biological activities of extracts and compounds from Thai Kae-Lae (Maclura cochinchinensis (Lour.) Corner)” (BMC Complementary Medicine and Therapies, 2023).

Turning to `O=c1c(O)c(-c2ccc(O)c(O)c2)oc2cc(O)cc(O)c12` [Quercetin, quercetin], the TNF-α inhibition result is “significantly more potent inhibition of IL-2, TNF-α, and NO than dexamethasone”.
